Results from patent US20120165319A1, “INHIBITORS OF INTERLEUKIN-1 BETA CONVERTING ENZYME” (VERTEX PHARMACEUTICALS INCORPORATED, priority 1995, published 2012).

What follows are compounds tested against T1, ICE (Homo sapiens, UniProt P29466) (assay: Enzyme assay with UV-visible substrate (visible ICE assay, Succinyl-Tyr-Val-Ala-Asp-pNitroanilide)). Conditions: Table 5.
T1 sequence (P29466 120-297 limits assumed): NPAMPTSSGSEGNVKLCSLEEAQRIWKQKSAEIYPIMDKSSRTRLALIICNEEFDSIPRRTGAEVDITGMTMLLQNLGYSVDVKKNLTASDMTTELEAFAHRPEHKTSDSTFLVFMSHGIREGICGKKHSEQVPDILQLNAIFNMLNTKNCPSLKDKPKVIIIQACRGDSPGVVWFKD
T1 sequence (P29466 317-404 limits assumed): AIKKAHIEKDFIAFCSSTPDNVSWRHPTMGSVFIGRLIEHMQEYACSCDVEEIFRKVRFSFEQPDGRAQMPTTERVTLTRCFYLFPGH
Assay type: biochemical
Procedure: 1. Enzyme Assay with Uv-Visible Substrate
This assay is run using an Succinyl-Tyr-Val-Ala-Asp-pNitroanilide substrate. Synthesis of analogous substrates is described by L. A. Reiter (Int. J. Peptide Protein Res. 12, 87-96 (1994)). The assay mixture contains:
The visible ICE assay is run in a 96-well microtiter plate. Buffer, ICE and DMSO (if inhibitor is present) are added to the wells in the order listed. The components are left to incubate at room temperature for 15 minutes starting at the time that all components are present in all wells. The microtiter plate reader is set to incubate at 37° C. After the 15 minute incubation, substrate is added directly to the wells and the reaction is monitored by following the release of the chromophore (pNA) at 405-603 nm at 37° C. for 20 minutes. A linear fit of the data is performed and the rate is calculated in mOD/min. DMSO is only present during experiments involving inhibitors, buffer is used to make up the volume to 100 μl in the other experiments.
For determination of enzyme inhibition constants (Ki) or the mode of inhibition (competitive, uncompetitive or noncompetitive), the rate data determined in the enzyme assays at varying inhibitor concentrations are computer-fit to standard enzyme kinetic equations (see I. H. Segel, Enzyme Kinetics, Wiley-Interscience, 1975).

Compound	Ki [nM]
CN(C)S(=O)(=O)N[C@H]1CCC(=O)N2CCC[C@@H](C(=O)N[C@H](C=O)CC(=O)O)N2C1=O [Compound 428]	280
N[C@H]1CCC(=O)N2CCC[C@@H](C(=O)N[C@H](C=O)CC(=O)O)N2C1=O [Compound 429]	7000
O=C[C@H](CC(=O)O)NC(=O)[C@@H]1CCCN2C(=O)CC[C@H](NC(=O)c3cccc(F)c3)C(=O)N12 [Compound 462]	40
O=C[C@H](CC(=O)O)NC(=O)[C@@H]1CCCN2C(=O)CC[C@H](NC(=O)c3ccc(O)c(CN4CCOCC4)c3)C(=O)N12 [Compound 477]	60
O=C[C@H](CC(=O)O)NC(=O)[C@@H]1CCCN2C(=O)CC[C@H](NC(=O)Cc3ccccc3)C(=O)N12 [Compound 495]	43

Second part, the compound after the results:

Ki [nM]	Compound
148	CC(=O)N1C[C@H](NC(=O)/C=C/c2ccccc2)C(=O)N(CC(=O)N[C@H](C=O)CC(=O)O)c2ccccc21 [Compound 632]
260	CC(=O)N1C[C@H](NC(=O)c2cccc(O)c2C)C(=O)N(CC(=O)N[C@H](C=O)CC(=O)O)c2ccccc21 [Compound 626]
805	CC(=O)N1C[C@H](NS(=O)(=O)Cc2ccccc2)C(=O)N(CC(=O)N[C@H](C=O)CC(=O)O)c2ccccc21 [Compound 631]
105	CC(=O)N1C[C@H](NC(=O)c2sc(C)nc2C)C(=O)N(CC(=O)N[C@H](C=O)CC(=O)O)c2ccccc21 [Compound 625]
230	CC(=O)N1C[C@H](NS(=O)(=O)c2ccccc2)C(=O)N(CC(=O)N[C@H](C=O)CC(=O)O)c2ccccc21 [Compound 629]
9	CC(=O)N1C[C@H](NC(=O)c2ccc3cc(OC(=O)c4ccc5cc(O)ccc5c4)ccc3c2)C(=O)N(CC(=O)N[C@H](C=O)CC(=O)O)c2ccccc21 [Compound 623]
300	CC(=O)N1C[C@H](NC(=O)c2ccsc2)C(=O)N(CC(=O)N[C@H](C=O)CC(=O)O)c2ccccc21 [Compound 624]
270	CC(=O)N1C[C@H](NC(=O)Cc2ccccc2)C(=O)N(CC(=O)N[C@H](C=O)CC(=O)O)c2ccccc21 [Compound 630]
33	Cc1cccc(CC(=O)N2C[C@H](NC(=O)c3ccccc3)C(=O)N(CC(=O)N[C@H](C=O)CC(=O)O)c3ccccc32)c1 [Compound 605t, (3S)-3-[(3S)-2-Oxo-3-benzoylamino-5-(3-methylphenylacetyl)-2,3,4,5-tetrahydro-1H-1,5-benzodiazepin-1-acetylamino]-4-oxo-butyric acid]
1000	O=C[C@H](CC(=O)O)NC(=O)CN1C(=O)[C@@H](NC(=O)c2ccccc2)CN(C(=O)OC2CCOC2)c2ccccc21 (some centres unmarked) [Compound 605q]

Same assay, conditions: Table 17

Compound	Ki [nM]
CO/N=C/[C@H](CC(=O)O)NC(=O)[C@@H]1CCCN2C(=O)CC[C@H](NC(=O)c3ccc(OC)cc3)C(=O)N12 [Compound 308c, [3S(1S,9S)3-(9-(4-Methoxybenzoyl)amino-6,10-dioxo-1,2,3,4,7,8,9,10-octahydro-6H-pyridazino[1,2-a][1,2]diazepine-1-carboxamido)-amino]-4-oxobutanoic acid, O-methyl oxime]	3000
O=C[C@H](CC(=O)O)NC(=O)[C@@H]1CCCN2C(=O)CCN(NC(=O)/C=C/c3ccc(Cl)c(Cl)c3)C(=O)N12 [Compound 1115]	250
COc1cc(C(=O)C(=O)NN2CCC(=O)N3CCC[C@@H](C(=O)N[C@H](C=O)CC(=O)O)N3C2=O)cc(OC)c1OC [Compound 1124]	270
O=C[C@H](CC(=O)O)NC(=O)[C@@H]1CCCN2C(=O)CCN(NC(=O)CCC3CCCCC3)C(=O)N12 [Compound 1119]	515
Cc1cc(C)c(CC(=O)NN2CCC(=O)N3CCC[C@@H](C(=O)N[C@H](C=O)CC(=O)O)N3C2=O)c(C)c1 [Compound 1122]	400
O=C[C@H](CC(=O)O)NC(=O)[C@@H]1CCCN2C(=O)CCN(NC(=O)C(=O)c3ccc4c(c3)OCO4)C(=O)N12 [Compound 1109]	80
O=C[C@H](CC(=O)O)NC(=O)[C@@H]1CCCN2C(=O)CCN(NC(=O)CC3CCCCC3)C(=O)N12 [Compound 1118]	380
COc1ccc(C(=O)N[C@H]2CCC(=O)N3CCC[C@@H](C(=O)N[C@H](/C=N/OCc4ccccc4)CC(=O)O)N3C2=O)cc1 [Compound 308d, [3S(1S,9S)3-(9-(4-Methoxybenzoyl)amino-6,10-dioxo-1,2,3,4,7,8,9,10-octahydro-6H-pyridazino[1,2-a][1,2]diazepine-1-carboxamido)-amino]-4-oxobutanoic acid, O-benzyl oxime]	3000
O=C[C@H](CC(=O)O)NC(=O)[C@@H]1CCCN2C(=O)CCN(NC(=O)CCc3ccc(Cl)cc3)C(=O)N12 [Compound 1113]	290

Continued, values first:

Ki [nM]	Compound
175	CC(=O)N1C[C@H](NC(=O)C(=O)c2ccco2)C(=O)N(CC(=O)N[C@H](C=O)CC(=O)O)c2ccccc21 [Compound 711]
275	CC(=O)N1C[C@H](NC(=O)/C=C/c2ccc(Cl)c(Cl)c2)C(=O)N(CC(=O)N[C@H](C=O)CC(=O)O)c2ccccc21 [Compound 700]
110	CC(=O)N1C[C@H](NC(=O)C(=O)Nc2ccc(Cl)cc2)C(=O)N(CC(=O)N[C@H](C=O)CC(=O)O)c2ccccc21 [Compound 710]
140	CC(=O)N1C[C@H](NC(=O)/C=C/c2ccc3c(c2)OCO3)C(=O)N(CC(=O)N[C@H](C=O)CC(=O)O)c2ccccc21 [Compound 708]
90	CC(=O)N1C[C@H](NC(=O)C(=O)c2cccs2)C(=O)N(CC(=O)N[C@H](C=O)CC(=O)O)c2ccccc21 [Compound 701]

Same assay, conditions: Table 27

Compound	Ki [nM]
COCC(=O)N1C[C@H](NC(=O)c2cc(C)c(O)c(C)c2)C(=O)N(CC(=O)N[C@H](/C=N/OCc2c(Cl)cccc2Cl)CC(=O)O)c2ccccc21 [Compound 688c, (3S)-3-[(3S)-2-Oxo-3-(3,5-dimethyl-4-hydroxybenzoyl)amino-5-methoxyacetyl-2,3,4,5-tetrahydro-1H-1,5-benzodiazepine-1-acetylamino]-4-oxobutyric acid, O-2,6-dichlorobenzyl oxime]	200
CC(=O)N[C@@H](CCC(=O)O)C(=O)N[C@H]1CN(C(=O)CO)c2ccccc2N(CC(=O)N[C@H](C=O)CC(=O)O)C1=O [Compound 731]	150

The next lines start with the values.

Ki [nM]	Compound
0.5	O=C[C@H](CC(=O)O)NC(=O)CN1C(=O)[C@@H](NC(=O)c2nccc3ccccc23)CN(C(=O)CO)c2cc(Cl)ccc21 [Compound 696-2, (3S)-3-[(3S)-2-Oxo-3-isoquinolin-1-oylamino-5-hydroxyacetyl-2,3,4,5-tetrahydro-7-chloro-1H-1,5-benzodiazepine-1-acetylamino]-4-oxobutyric acid]
1.1	COCC(=O)N1C[C@H](NC(=O)c2nccc3ccccc23)C(=O)N(CC(=O)N[C@H](C=O)CC(=O)O)c2ccccc21 [Compound 699, (3S)-3-[(3S)-2-Oxo-3-isoquinolin-1-oylamino-5-methoxyacetyl-2,3,4,5-tetrahydro-1H-1,5-benzodiazepine-1-acetylamino]-4-oxobutyric acid]
2.7	COC(=O)N1C[C@H](NC(=O)c2ccc(O)c(Cl)c2)C(=O)N(CC(=O)N[C@H](C=O)CC(=O)O)c2ccccc21 [Compound 720]
300	CC(=O)OC(C)(C)C(=O)N1C[C@H](NC(=O)c2cc(C)c(O)c(C)c2)C(=O)N(CC(=O)N[C@H](C=O)CC(=O)O)c2ccccc21 [Compound 728]
